According to the SangsterLogP compilation:

What was measured:
[1] = method code SF-HPLC, from DOI: 10.1016/j.ejmech.2003.12.002, PMID: 15051170
[2] = not given; remark: listed apart in the source
[3] = not given; remark: listed apart in the source
[4] = not given; remark: listed apart in the source
[5] = not given; remark: listed apart in the source
[6] = method code SF-HPLC, from DOI: 10.1016/j.ejps.2012.04.024, PMID: 22609526
[7] = not given; remark: listed apart in the source
[8] = not given; remark: listed apart in the source
[9] = method code SF-HPLC, from Thijssen, W. (1981). The relationship between Log P, Rm, log k' and the constants pi and f: a study on penicillins. Eur J Med Chem, 16(5)449-452.
[10] = method code SF-AS, from DOI: 10.3109/03639048709068705
[11] = not given; remark: listed apart in the source
[12] = method code SF-AS, from PMID: 872227; settings: pH 7.2
[13] = not given; remark: listed apart in the source
[14] = method code SF-AS, from DOI: 10.1016/0378-5173(85)90003-1
[15] = not given; remark: listed apart in the source
[16] = from Jayashree, Bs.; Sahu, A.; MM, S.; Venugopala, K. (2006). Synthesis, characterization and determination of partition coefficient of some triazolo thiadiazinyl chlorocoumarin derivatives for their …; settings: pH 7.4
[17] = not given; remark: listed apart in the source
[18] = method code SF-AS, from DOI: 10.1016/j.arabjc.2011.11.013
[19] = method code SF-RC, from DOI: 10.1016/j.bmc.2006.11.022, PMID: 17293116; settings: pH 7.4
[20] = not given; remark: listed apart in the source
[21] = method code SF-AS, from DOI: 10.1002/ardp.19853180604, PMID: 4026543; settings: pH 7.4
[22] = method code SF-HPLC, from DOI: 10.1023/a:1016359301852, PMID: 24271710
[23] = not given; remark: listed apart in the source

## CC1CN(C2C=CC(COP(=O)(NC(C)C(=O)O)Oc3ccc(Br)cc3Cl)O2)C(=O)NC1=O (stereo not given)
[1]
  logP: 1.81

## C(=Cc1cccnc1)c1ccc(C=Cc2cccnc2)cc1
other
  logP: 3.73

## CC1N=C2C3=C(CCC(c4ccccc4)C3)C(C(N)=O)=CN2C1C (stereo not given)
[2]
  logP: 3.21

## CC(C)NCC(COc1cccc2ccccc12)OC(=O)c1ccc([N+](=O)[O-])cc1 (stereo not given)
[3]
  logP: 5.97

## CCCCOc1cc(C(=O)NCCN(CC)CC)c2ccccc2n1
[4]
  logP: 4.19

## Cc1ccccc1OCC(O)CNCC(O)COc1ccccc1C (stereo not given)
[5]
  logP: 3.67

## O=C(O)[C@H]1O[C@@H](Oc2c(-c3ccc(O)c(O)c3)oc3cc(O)cc(O)c3c2=O)[C@H](O)[C@@H](O)[C@@H]1O
[6]
  logP: 0.79

## O=C(Nc1ccc2ncnc(Nc3ccc(F)c(Cl)c3)c2c1)c1ccc(I)cc1
[7]
  logP: 4.83

## C[C@@H]1C[C@@]2(C)[C@@H](CC[C@@H]3[C@@H]2CC[C@]2(C)[C@@H](O)CC[C@@H]32)CC1=O
[8]
  logP: 3.99

## Cc1onc(-c2c(Cl)cccc2Cl)c1C(=O)NC1C(=O)N2C1S(=O)C(C)(C)C2C(=O)O (stereo not given)
[9]
  logP: 2.57

## CCCCCC(=O)OC(CNC(C)C)COc1cccc2ccccc12 (stereo not given)
[10]
  logP: 6.85

## CCC(=O)OC(CNC(C)C)COc1cccc2ccccc12 (stereo not given)
[10]
  logP: 4.99

## Cc1cn(C2CC(N=[N+]=[N-])C(COC(=O)C(=O)NC(C(=O)O)C(C)C)O2)c(=O)[nH]c1=O (stereo not given)
[11]
  logP: 0.68

## CCCCOc1ccc(NC(=O)OCCN2CCOCC2)c(C)c1
[12]
  logD: 2.82

## CCN(CC)C(=O)C(C#N)=Cc1cc(OC(C)=O)c(OC(C)=O)c([N+](=O)[O-])c1
[13]
  logP: 1.23

## O=C(Nc1ccc2ncnc(Nc3ccc(F)c(Cl)c3)c2c1)c1ccc(F)cc1
[7]
  logP: 4.55

## CCCC(=O)Oc1cc(C=C(C#N)C(=O)N(CC)CC)cc([N+](=O)[O-])c1OC(=O)CCC
[13]
  logP: 3.15

## Cn1nnnc1SCC1=C(C(=O)OCOC(=O)C(C)(C)C)N2C(=O)C(NC(=O)C(O)c3ccccc3)C2SC1 (stereo not given)
[14]; pH 4.5
  logD: 0.85

## CCN(CC)CCC(=O)NC1c2ccccc2Oc2c(C)cccc21 (stereo not given)
[15]
  logP: 3.55

## O=c1oc2ccc(Cl)cc2cc1C1=Nn2c(nnc2-c2cccc(Br)c2)SC1
[16]
  logD: 1.53

## CC(=O)N(CC(O)CO)c1c(I)c(C(=O)NCC(O)CO)c(I)c(C(=O)NCC(O)CO)c1I (stereo not given)
[17]
  logP: -3.08

## CC(=O)N(C[C@@H](O)CO)c1c(I)c(C(=O)NC(CO)CO)c(I)c(N(C(C)=O)[C@@H](O)CO)c1I
[17]
  logP: -2.64

## Cc1cn(C2CC(N=[N+]=[N-])C(COC(=O)C(=O)NC(CC(C)C)C(=O)O)O2)c(=O)[nH]c1=O (stereo not given)
[11]
  logP: 1.12

## O=C(CNc1ccc(O)cc1)Nc1ccc(Cl)cc1C(=O)c1ccccc1
[18]
  logP: 3.5

## CN(C)c1ccc(-c2nc3ccc(-c4nc5ccc(F)cc5s4)cc3s2)cc1
[19]
  logD: 2.99

## CC(C)NCC(COc1cccc2ccccc12)OC(=O)C(C)(C)C (stereo not given)
[10]
  logP: 6.44

## CCN(CC)C(=O)C(C#N)=Cc1cc(OC(=O)c2ccccc2)c(OC(=O)c2ccccc2)c([N+](=O)[O-])c1
[13]
  logP: 3.44

## CCCCCOc1ccc(NC(=O)OCCN2CCOCC2)c(C)c1
[12]
  logD: 3.38

## CC(=O)OC(CNC(C)C)COc1cccc2ccccc12 (stereo not given)
[3]
  logP: 4.34

## COc1cc(OC)c2c(=O)c(OC)c(-c3ccc(OC)c(OC)c3)oc2c1
[6]
  logP: 3.85

## O=C(Nc1ccc2ncnc(Nc3ccc(F)c(Cl)c3)c2c1)c1cccc(I)c1
[7]
  logP: 5.58

## CCCCCCOc1ccc(NC(=O)OCCN2CCOCC2)c(C)c1
[12]
  logD: 3.9

## COc1ccc(C(=O)CCCN2CCC(O)(c3ccc(Cl)cc3)CC2)cc1
[20]
  logP: 2.9

## CO[C@H]1CC[C@H]2[C@@H]3CC[C@H]4CC(=O)[C@H](C)C[C@]4(C)[C@H]3CC[C@]12C
[8]
  logP: 5.43

## CC(=O)N(CCO)c1c(I)c(C(=O)NC(CO)CO)c(I)c(C(=O)NC(CO)CO)c1I
[17]
  logP: -2.49

## CNc1ccc(-c2nc3ccc(-c4nc5ccccc5s4)cc3s2)cc1
[19]
  logD: 2.34

## O=C(CNc1ccccc1)Nc1ccc(Cl)cc1C(=O)c1ccccc1
[18]
  logP: 4.24

## COc1ccc(CN2CCN(c3ccccc3)CC2)c(OC)c1OC
[4]
  logP: 3

## COC(=O)C(C)NP(=O)(OCC1C=CC(n2cc(C)c(=O)[nH]c2=O)O1)Oc1c(OC)cccc1OC (stereo not given)
[1]
  logP: 0.4

## CC(=O)OCC1=C(C(=O)OCOC(=O)C(C)(C)C)N2C(=O)C(NC(=O)Cc3cccs3)C2SC1 (stereo not given)
[14]; pH 4.6
  logD: 1.57

## CC(CCN1CCC(O)(c2ccc(Cl)cc2)CC1)c1ccc(F)cc1 (stereo not given)
[20]
  logP: 4.02

## C(=C\c1ccc(/C=C/c2ccncc2)cc1)/c1ccncc1
other
  logP: 3.93

## Cc1cccc2c1Sc1ccccc1C2NC(=O)CCN(C)C (stereo not given)
[15]
  logP: 3.06

## Cc1onc(-c2c(Cl)ccc(O)c2F)c1C(=O)NC1SC2N(C1=O)C(C(=O)O)C2(C)C (stereo not given)
[9]
  logP: 2.23

## Cc1ccc(C(=O)CCCN2CCC(O)(c3ccc(Cl)cc3)CC2)cc1
[20]
  logP: 3.44

## O=[N+]([O-])c1ccc(OCC(O)CNCC(O)COc2ccccc2)cc1 (stereo not given)
[5]
  logP: 2.62

## COC(=O)C(C)NP(=O)(OCC1C=CC(n2cc(C)c(=O)[nH]c2=O)O1)Oc1ccccc1Br (stereo not given)
[1]
  logP: 0.95

## CNc1ccc(-c2nc3ccc(-c4nc5ccc(Cl)cc5s4)cc3s2)cc1
[19]
  logD: 3.05

## O=c1oc2ccc(Cl)cc2cc1C1=Nn2c(nnc2-c2ccccc2O)SC1
[16]
  logD: 0.36

## Cc1nc2ccccc2c(=O)n1N=C1SCC(=O)N1c1ccc(Cl)cc1
[21]
  logD: -1.6

## C#CC1(O)CC[C@H]2[C@@H]3CCC4=CC(=O)CC[C@]4(C)[C@H]3CC[C@@]21C (stereo in doubt)
[22]
  logP: 3.11

## Cc1onc(-c2ccccc2Cl)c1C(=O)NC1C(=O)N2C1S(=O)C(C)(C)C2C(=O)O (stereo not given)
[9]
  logP: 2

## C[C@]12C=CC(=O)C=C1CC[C@@H]1[C@@H]2C(=O)C[C@@]2(C)[C@H]1CC[C@]2(O)C(=O)CO
[23]
  logP: 1.6

## COc1cc(C=Cc2cccnc2)ccc1C=Cc1cccnc1
other
  logP: 4.32

## COc1ccc(CCNCC(O)COc2cccc(C)c2)cc1OC (stereo not given)
[5]
  logP: 3

## Cc1nc2ccccc2c(=O)n1N=C1SCC(=O)N1c1ccccc1
[21]
  logD: -1.06

## C#CC1(OC(=O)c2ccn(C)c2)CCC2C3CCC4=CC(=O)CCC4(C)C3CCC21C (stereo not given)
[22]
  logP: 4.49

## Cn1nnnc1SCC1=C(C(=O)OCOC(=O)C(C)(C)C)N2C(=O)C(NC(=O)Cc3csc(N)n3)C2SC1 (stereo not given)
[14]; pH 4.6
  logD: 1.36

## Fc1ccc(C(c2ccc(F)cc2)N2CCN(C/C=C/c3ccccc3)CC2)cc1
[4]
  logP: 4.83

## CCN(CC)CCC(=O)NC1c2ccccc2Sc2c(C)cccc21 (stereo not given)
[15]
  logP: 4.1

## CC1N=C2C3=C(CCC(c4ccccc4)C3)C(C(=O)NCCO)=CN2C1C (stereo not given)
[2]
  logP: 2.81

## Cc1cn2c(n1)C1CC(c3ccccc3)CCC1C(C(=O)N(C)C)=C2 (stereo not given)
[2]
  logP: 2.77

## O=c1oc2ccc(Cl)cc2cc1C1=Nn2c(COc3ccc(Cl)cc3Cl)nnc2SC1
[16]
  logD: 1.4

## O=C(OC[C@H]1O[C@@H](Oc2c(-c3ccc(O)c(O)c3)oc3cc(O)cc(O)c3c2=O)[C@H](O)[C@@H](O)[C@H]1O)c1cc(O)c(O)c(O)c1
[6]
  logP: -0.97

## Nc1ccc(C(=O)OCC(=O)Nc2ccc(Cl)cc2C(=O)c2ccccc2)cc1
[18]
  logP: 4.78

## C#C[C@]1(O)CC[C@H]2[C@@H]3CCC4=CC(=O)CC[C@@H]4[C@H]3CC[C@@]21C
[22]
  logP: 2.97

## CC=CC(=O)OC(CNC(C)C)COc1cccc2ccccc12 (stereo not given)
[3]
  logP: 3.78

## C[C@@H]1CC2=CC(=O)CC[C@@H]2[C@H]2CC[C@@]3(C)[C@@H](CC[C@]3(C)O)[C@@H]21
[8]
  logP: 3.19

## Cc1nc2ccccc2c(=O)n1N=C1SCC(=O)N1c1ccc(Br)cc1
[21]
  logD: -1.26

## Cc1cn(C2CC(N=[N+]=[N-])C(COC(=O)C(=O)N3CCCC3C(=O)O)O2)c(=O)[nH]c1=O (stereo not given)
[11]
  logP: 0.16
